Patent publication US6916905B2, “Dmt-Tic di-and tri-peptidic derivatives and related compositions and methods of use” (The United States of America as represented by the …, priority 2000, dated 2005)
Entries after “also recorded” stand apart in the source; their conditions may differ. Like-named read-outs stand apart in the source and are kept apart here. Non-standard residues stand in square brackets, D forms with d. Residues, ends and D or L forms follow the SMILES beside them. *: point of attachment. Dmt = Cc1cc(O)cc(C)c1C[C@H](N)C(=O)O; Tic = O=C(O)[C@@H]1Cc2ccccc2CN1; NHPh = c1ccc(N*)cc1

Key:
δ receptors [1] = target: δ receptors (Mus musculus, UniProt P32300); test: MVD functional pharmacological bioassay (Example 75); set-up: A single MVD was suspended in 4 ml modified Kreb's solution; from tissue; host or cells: mouse vas deferens
μ receptors [2] = target: μ receptors (Cavia porcellus, UniProt P97266); test: GPI functional pharmacological bioassay (Example 75); set-up: species or system guinea pig; settings: μ agonism
Method: The in vitro pharmacological assays used a single MVD for δ receptors and a 2- to 3-cm segment of GPI for μ receptors with each suspended in 20 ml organ baths containing balanced salt solutions in a physiological buffer (Salvadori et al., Mol. Med., 1: 678-689 (1995)). […] Data were obtained from 4 independent assays and tissue samples. Agonism is expressed as the IC50 (nM) value and antagonism as pA2 (Labarre et al., Eur. J. Pharm., 406: R1-R3 92000)).

δ receptors [3] = target: T1, δ receptors (Rattus norvegicus, UniProt P33533); test: Radio-receptor competition assay, rat brain synaptosomes, [3H]DPDPE (Example 74); format: binding
T1 construct: assayed with a rat brain synaptosomal preparation (P2); from tissue; host or cells: rat brain P2 synaptosomes
Method: (§1) After 120 min incubation at room temperature (23-24° C.), the samples were rapidly filtered through Whatman GF/C glass fiber filers and washed three times with 2 ml ice-cold 0.05 M Tris, pH 7.4-7.5, containing 0.1% BSA. Presoaking filters in 0.1% polyethylenimine is only required in assays with peptides carrying an overall positive charge, such as dynorphin or nociceptin (Guerrini et al., J. Med. Chem., 40: 1789-1793 (1997)). Non-specific binding was determined using 2 μM unlabeled DPDPE or DAGO for δ or μ assays, respectively. The Ki data, determined according to Cheng and Prusoff (Cheng et al., Biochem. Pharmacol., 22: 3099-3108 (1973)), represent the means±SE from 3 or more independent assays using at least 3 different synaptosome preparations and testing the analogues with 5-8 graded dosages over 2-3 orders of magnitude in concentration.

μ receptors [4] = target: T2, μ receptors (Rattus norvegicus, UniProt P33535); test: Radio-receptor competition assay, rat brain synaptosomes, [3H]DAGO (Example 74); format: binding; settings: rat brain P2 synaptosomes, [3H]DAGO
T2 construct: assayed with a rat brain synaptosomal preparation (P2); from tissue; host or cells: rat brain P2 synaptosomes
Method: as §1

Chain of δ receptors (Mus musculus, UniProt P32300) (P32300 whole entry): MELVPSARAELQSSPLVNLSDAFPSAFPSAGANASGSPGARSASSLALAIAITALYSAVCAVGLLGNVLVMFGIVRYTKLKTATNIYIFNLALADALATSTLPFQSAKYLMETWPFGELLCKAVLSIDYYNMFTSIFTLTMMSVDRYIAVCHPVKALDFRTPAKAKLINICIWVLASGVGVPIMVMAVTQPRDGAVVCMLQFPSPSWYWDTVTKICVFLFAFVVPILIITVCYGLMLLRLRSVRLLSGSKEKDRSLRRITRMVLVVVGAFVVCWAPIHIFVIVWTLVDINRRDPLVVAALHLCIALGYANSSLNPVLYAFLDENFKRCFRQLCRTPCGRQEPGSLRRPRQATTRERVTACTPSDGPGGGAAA
T1 sequence (P33533 whole entry): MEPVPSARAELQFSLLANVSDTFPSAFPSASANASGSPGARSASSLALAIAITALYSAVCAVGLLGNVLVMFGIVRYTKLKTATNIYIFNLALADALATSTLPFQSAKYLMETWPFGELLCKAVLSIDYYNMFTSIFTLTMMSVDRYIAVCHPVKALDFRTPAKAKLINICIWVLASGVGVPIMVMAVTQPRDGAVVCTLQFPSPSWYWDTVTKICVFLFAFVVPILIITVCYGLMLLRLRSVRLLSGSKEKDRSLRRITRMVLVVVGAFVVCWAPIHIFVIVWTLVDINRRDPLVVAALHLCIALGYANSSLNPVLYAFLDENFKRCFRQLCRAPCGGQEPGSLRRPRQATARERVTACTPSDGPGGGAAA
T2 sequence (P33535 whole entry): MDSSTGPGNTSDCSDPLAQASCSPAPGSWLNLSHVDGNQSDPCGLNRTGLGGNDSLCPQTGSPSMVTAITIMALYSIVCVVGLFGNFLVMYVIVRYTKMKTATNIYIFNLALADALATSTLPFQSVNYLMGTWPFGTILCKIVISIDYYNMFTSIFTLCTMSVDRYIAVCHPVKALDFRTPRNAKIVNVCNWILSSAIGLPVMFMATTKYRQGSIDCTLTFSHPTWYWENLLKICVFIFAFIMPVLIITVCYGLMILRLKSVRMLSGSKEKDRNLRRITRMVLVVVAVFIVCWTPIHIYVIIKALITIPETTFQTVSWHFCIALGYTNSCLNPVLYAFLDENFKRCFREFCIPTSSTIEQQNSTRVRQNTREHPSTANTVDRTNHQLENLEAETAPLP
Chain of μ receptors (Cavia porcellus, UniProt P97266) (P97266 whole entry, looked up): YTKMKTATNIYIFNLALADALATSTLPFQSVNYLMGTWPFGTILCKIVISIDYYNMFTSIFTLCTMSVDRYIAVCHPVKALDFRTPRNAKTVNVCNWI

Compound: Cc1cc(O)cc(C)c1C[C@H](N)C(=O)N1Cc2ccccc2C[C@H]1C(=O)NCC(=O)Nc1ccccc1 [Compound 27, H-Dmt-Tic-Gly-NH-Ph] (H-[Dmt]-[Tic]-Gly-NHPh)
- EC50 (δ receptors [1]): 3020 pM
- δ activity on MVD, in words (δ receptors [1]): potent δ-agonist activity; also recorded: essentially equivalent activity as a δ agonist and a μ agonist
- lower antagonist activity of N,N(Me)2-Dmt-Tic-OH against this agonist than against deltorphin C and 24 (δ receptors [1]; MVD): 5 fold
- MVD, antagonist activity (pA2) N,N(CH3)2-Dmt-Tic-OH (δ receptors [1]; pA2 of N,N(CH3)2-Dmt-Tic-OH against the listed δ agonist): 9.04
- MVD, antagonist activity (pA2) naloxone (δ receptors [1]; pA2 of naloxone against the listed δ agonist): 7.47
- Functional Bioactivity GPI (pEC50) (μ receptors [2]): 8.59
- Ki (δ receptors [3]; rat brain P2 synaptosomes, [3H]DPDPE, read-out: Receptor affinity (nM) Kiδ): 0.042 nM
- μ/δ (δ receptors [3]; selectivity Kiμ/Kiδ): 3.6
- Ki (μ receptors [4]; Receptor affinity (nM) Kiμ): < 1 nM
- Ki (μ receptors [4]; read-out: Receptor affinity (nM) Kiμ): 0.16 nM
